Experiments:
[1] = Stability of DNPs by DLS after storage at 5° C.; format: physicochemical; parameters: key to Original size distribution type (DLS curve) / Size distribution type (DLS curve): U: DLS curve showed unimodal size distribution; B: DLS curve showed bimodal size distribution; M: DLS curve showed multimodal size distribution; settings: for pH Sample: DNPs: IAJD 4.0 mg/mL + Luc-mRNA 0.1 mg/mL, injection in acetate buffer pH 4.00; for PDI / Size (d, nm) / Original size distribution type (DLS curve): IAJD 4.0 mg/mL + Luc-mRNA 0.1 mg/mL; for PDI / Size (d, nm): acetate buffer; for Original size distribution type (DLS curve): before storage, acetate buffer pH 4.00
In short: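 DNPs in acetate buffer sized by DLS after storage at 5 °C. Stability ranked Excellent, Good or Not stable according to retention, shrinkage or growth of original size and narrowing or broadening of size distribution.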

lung = experiment: In vivo mRNA delivery, IVIS imaging of organs: lung; parameters: species or system mice; key to Organs with luminescence: lung: strong: Strong meant the luminescence intensity in that organ was relatively high, compared to other organs; weak: Weak meant the luminescence intensity in that organ was relatively low, compared to other organs; settings: Table 17; mice, IVIS, 4-6 h after injection; intensity relative to other organs
[2] = Dimensions (size, PDI) of DNPs co-assembled from IAJDs and Luc-mRNA by DLS; format: physicochemical
In short: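 IAJDs (80 mg/mL ethanol stock) rapidly injected into Luc-mRNA (4.0 mg/mL stock) diluted in 10 mM acetate buffer pH 4.0, then vortexed 5 s. Size and polydispersity of resulting DNPs measured by DLS (633 nm laser, 175° detection) at 23 °C.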

liver = experiment: In vivo mRNA delivery, IVIS imaging of organs: liver; parameters: species or system mice; key to Organs with luminescence: liver: strong: Strong meant the luminescence intensity in that organ was relatively high, compared to other organs; weak: Weak meant the luminescence intensity in that organ was relatively low, compared to other organs; settings: Table 17; mice, IVIS, 4-6 h after injection; intensity relative to other organs
BALB/c mice = experiment: In vivo mRNA delivery in mice with DNPs, whole-body bioluminescence imaging (IVIS)
spleen = experiment: In vivo mRNA delivery, IVIS imaging of organs: spleen; parameters: species or system mice; key to Organs with luminescence: spleen: strong: Strong meant the luminescence intensity in that organ was relatively high, compared to other organs; weak: Weak meant the luminescence intensity in that organ was relatively low, compared to other organs; settings: Table 17; mice, IVIS, 4-6 h after injection; intensity relative to other organs
[3] = Table 16, DNPs from IAJD 4 mg/mL and Luc-mRNA 0.10 mg/mL by injection in acetate buffer (10 mM, pH 4.0)
[4] = Table 17, DNPs used in vivo, IAJD 4 mg/mL, Luc-mRNA 0.10 mg/mL, acetate pH 4.0
[5] = Table 20, nonsymmetric IAJDs and MC3-Luc-mRNA

Structure (SMILES) | pH Sample [1] | Original size distribution type (DLS curve) [1] | Organs with luminescence: lung (lung) | PDI [2, 3] | Size (d, nm) [2, 3] [nm] | PDI [2, 4] | Size (d, nm) [2, 4] [nm] | Organs with luminescence: liver (liver) | In vivo activity (total flux, p/s) (BALB/c mice; Table 19, nonsymmetric IAJDs) | Organs with luminescence: spleen (spleen) | Size distribution type (DLS curve) ([1]; after 62 days at 5° C.) | PDI ([1]; after 62 days at 5° C.) | Size (d, nm) ([1]; after 62 days at 5° C.) [nm] | Size distribution type (DLS curve) ([1]; after 27 days at 5° C.) | PDI ([1]; after 27 days at 5° C.) | Size (d, nm) ([1]; after 27 days at 5° C.) [nm] | also measured
CCCCCCCCCCCCCCCOc1cc(COC(=O)CCCN2CCN(C)CC2)cc(OCCCCCCCCCCC)c1 [IAJD 118, 3-(Pentadecyloxy)-5-(undecyloxy)benzyl 4-(4-methylpiperazin-1-yl)butanoate] | 4.43 | (B) | Lung (weak), | 0.278 | 104 | 0.278 | 104 | liver (weak), | 1.46 × 10^7 p/s | spleen (strong) | – | – | – | – | – | – | Size distribution type (DLS curve) ([1]; after 75 days at 5° C.): (B); PDI ([1]; after 75 days at 5° C.): 0.262; Size (d, nm) ([1]; after 75 days at 5° C.): 105 nm
CCCCCCCCCCCCCCCOc1cc(COC(=O)CCCN2CCN(CCO)CC2)cc(OCCCCCCCCCCC)c1 [IAJD 119, 3-(Pentadecyloxy)-5-(undecyloxy)benzyl 4-(4-(2-hydroxyethyl)piperazin-1-yl)butanoate] | 4.36 | (M) | Lung (weak), | 0.459 | 163 | 0.459 | 163 | liver (weak), | 8.22 × 10^7 p/s | spleen (strong) | (B) | 0.489 | 254 | – | – | – | –
CCCCCCCCCCCCCCOc1cc(COC(=O)CCCN2CCN(CCO)CC2)cc(OCCCCCCCCCCC)c1 [IAJD 125, 3-(Tetradecyloxy)-5-(undecyloxy)benzyl 4-(4-(2-hydroxyethyl)piperazin-1-yl)butanoate] | 4.44 | (U) | Lung (weak), | 0.300 | 255 | 0.300 | 255 | liver (weak), | 2.15 × 10^8 p/s | spleen (strong) | (U) | 0.283 | 276 | – | – | – | In vivo activity (total flux, p/s) (BALB/c mice; [5]): 2.15 × 10^8 p/s
CCCCCCCCCCCCCCCCCOc1cc(COC(=O)CCCN2CCN(C)CC2)cc(OCCCCCCCCCCC)c1 [IAJD 126, 3-(Heptadecyloxy)-5-(undecyloxy)benzyl 4-(4-methylpiperazin-1-yl)butanoate] | 4.48 | (U) | Lung (weak), | 0.247 | 158 | 0.247 | 158 | liver (weak), | 3.21 × 10^7 p/s | spleen (strong) | – | – | – | – | – | – | Size distribution type (DLS curve) ([1]; after 70 days at 5° C.): (U); PDI ([1]; after 70 days at 5° C.): 0.239; Size (d, nm) ([1]; after 70 days at 5° C.): 154 nm
CCCCCCCCCCCCCCCCCOc1cc(COC(=O)CCCN2CCN(CCO)CC2)cc(OCCCCCCCCCCC)c1 [IAJD 127, 3-(Heptadecyloxy)-5-(undecyloxy)benzyl 4-(4-(2-hydroxyethyl)piperazin-1-yl)butanoate] | 4.46 | (U) | Lung (weak), | 0.270 | 276 | 0.270 | 276 | liver (weak), | 1.07 × 10^8 p/s | spleen (strong) | (B) | 0.248 | 263 | – | – | – | –
CCCCCCCCCCCCCCCCCCOc1cc(COC(=O)CCCN2CCN(CCO)CC2)cc(OCCCCCCCCCCC)c1 [IAJD 128, 3-(Octadecyloxy)-5-(undecyloxy)benzyl 4-(4-(2-hydroxyethyl)piperazin-1-yl)butanoate] | 4.40 | (B) | Lung (weak), | 0.381 | 291 | 0.381 | 291 | liver (weak), | 5.53 × 10^7 p/s | spleen (strong) | – | – | – | – | – | – | Size distribution type (DLS curve) ([1]; after 70 days at 5° C.): (B); PDI ([1]; after 70 days at 5° C.): 0.459; Size (d, nm) ([1]; after 70 days at 5° C.): 210 nm; In vivo activity (total flux, p/s) (BALB/c mice; [5]): 5.53 × 10^7 p/s
CCCCCCCCCCCOc1cc(COC(=O)CCCN2CCN(CCO)CC2)cc(OCC(CC)CCCC)c1 (centres unmarked) [IAJD 130, 3-((2-Ethylhexyl)oxy)-5-(undecyloxy)benzyl 4-(4-(2-hydroxyethyl)piperazin-1-yl)butanoate] | 4.50 | (U) | Lung (weak), | 0.271 | 172 | 0.271 | 172 | liver (weak), | 1.18 × 10^8 p/s | spleen (strong) | (U) | 0.282 | 149 | – | – | – | In vivo activity (total flux, p/s) (BALB/c mice; [5]): 1.18 × 10^8 p/s
CCCCCCCCCCCCCCCOc1cc(COC(=O)CCCN2CCN(C)CC2)cc(OCC(CC)CCCC)c1 (centres unmarked) [IAJD 135, 3-((2-Ethylhexyl)oxy)-5-(pentadecyloxy)benzyl 4-(4-methylpiperazin-1-yl)butanoate] | 4.95 | (U) | Lung (weak), | 0.267 | 92 | 0.267 | 92 | liver (strong), | 1.22 × 10^7 p/s | spleen (weak) | – | – | – | (U) | 0.278 | 92 | –
CCCCCCCCCCCCCCCOc1cc(COC(=O)CCCN2CCN(CCO)CC2)cc(OCC(CC)CCCC)c1 (centres unmarked) [IAJD 136, 3-((2-Ethylhexyl)oxy)-5-(pentadecyloxy)benzyl 4-(4-(2-hydroxyethyl)piperazin-1-yl)butanoate] | 4.57 | (U) | Lung (weak), | 0.307 | 149 | 0.307 | 149 | liver (weak), | 1.04 × 10^7 p/s | spleen (strong) | – | – | – | (U) | 0.296 | 153 | –
CCCCCCCCCCCCCCCOc1cc(COC(=O)CCCN2CCN(C)CC2)cc(OCCCCCCCCCC)c1 [IAJD 141, 3-(Decyloxy)-5-(pentadecyloxy)benzyl 4-(4-methylpiperazin-1-yl)butanoate] | 4.62 | (U) | Lung (weak), | 0.313 | 158 | 0.313 | 158 | liver (strong), | 2.06 × 10^7 p/s | spleen (strong) | – | – | – | (U) | 0.286 | 156 | –
CCCCCCCCCCCCCCCOc1cc(COC(=O)CCCN2CCN(CCO)CC2)cc(OCCCCCCCCCC)c1 [IAJD 142, 3-(Decyloxy)-5-(pentadecyloxy)benzyl 4-(4-(2-hydroxyethyl)piperazin-1-yl)butanoate] | 4.52 | (B) | Lung (weak), | 0.293 | 230 | 0.293 | 230 | liver (strong), | 2.51 × 10^7 p/s | spleen (strong) | – | – | – | (U) | 0.266 | 214 | –

From patent US20240252677A1, “ONE-COMPONENT DELIVERY SYSTEM FOR NUCLEIC ACIDS” (The Trustees of the University of Pennsylvania, priority 2021, published 2024)
